The record followed here is article PMC5377415, “Thermo‐kinetic analysis space expansion for cyclophilin‐ligand interactions – identification of a new nonpeptide inhibitor using Biacore™ T200” (FEBS Open Bio, 2017).

For the test, the target named is T1, His-tagged human cyclophilin-A (His-CypA) (Homo sapiens, UniProt P62937).
T1 construct: gene PPIA; full length M1-E165, codon-optimised, E. coli C41
Put plainly: SPR (Biacore T200), […] Langmuir fit, captured and stabilised His-CypA. The test is classed as binding. On the technique in general: In SPR one partner is held on a chip, and binding of the other changes the refractive index at the surface.

Broadly, the Kd is the free concentration of one partner at which half of the binding sites on the other are occupied at equilibrium, for simple one-to-one binding. A higher Kd goes with lower affinity.

T1 sequence (P62937 whole entry): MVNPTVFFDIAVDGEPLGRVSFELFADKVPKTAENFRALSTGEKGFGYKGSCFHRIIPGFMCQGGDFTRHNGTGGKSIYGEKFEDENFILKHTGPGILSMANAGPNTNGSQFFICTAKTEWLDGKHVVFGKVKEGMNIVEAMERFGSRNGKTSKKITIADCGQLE

For the molecule `Nc1cccnc1N` [2,3-diaminopyridine], the Kd worked out at 248 ± 60 µM.
